Inconclusive results are not listed.
These molecules were tested on E. coli mixed WT/h24 culture total growth, OD600, 24 h (assay: E. coli growth inhibition, wild-type GFP versus h24 humanized RFP strain, dose response, h24 mutant RFP vs wild-type GFP, cherry-pick (AID 977628)).

Compound	AC50 [µM]
COc1ccc(CSc2nc3ccccc3c(=O)n2CCCN2CCOCC2)cc1F	> 100
O=C(Nc1ccc(F)c(Cl)c1)C1CC2CCC1C2 (configuration not stated)	> 100
Cc1ccc(OCCCC(=O)NC(C)c2ccccc2)c(C)c1 (configuration not stated)	> 100
O=C(CC1SC(=O)N(Cc2ccccc2Cl)C1=O)Nc1nccs1 (configuration not stated)	> 100
Cc1cccc(N2CCN(Cc3nc(-c4ccc(F)cc4F)oc3C)CC2)n1	> 100
COc1cccc(C(=O)c2c[nH]c(C(=O)NCc3cccnc3)c2)c1	> 100
COCC#Cc1ccc2c(c1)O[C@H](CN(C)C(=O)c1ccccc1)[C@@H](C)CN([C@H](C)CO)S2(=O)=O	> 100
COc1cc2c(cc1OC)CN(CC(=O)Nc1ccccc1SC)CC2	> 100
COC(=O)c1sc(C(C)(C)C)cc1CS(=O)(=O)c1ccc(Cl)cc1	> 100
CCN(CC)S(=O)(=O)c1ccc(N2CCCC2)c(NC(=O)c2ccccc2OC)c1	> 100
O=C(Cc1ccc(Br)cc1)Nc1cccc(-c2cn3c(n2)SCC3)c1	> 100
COc1ccccc1N1CCN(Cc2ccc(OC)c3ccccc23)CC1	> 100
COc1ccc(C(=O)C[n+]2ccc3c(c2)nc(-c2cc(OC)c(OC)cc2OC)n3C)cc1	> 100
COc1cccc(OC)c1CNC(=O)CCSCc1ccccc1F	> 100
CN(C)S(=O)(=O)c1ccc(Cl)c(C(=O)OCC(=O)NC(=O)c2cccn2C)c1	> 100
COc1ccc(OCCC(=O)OCC(=O)NCCC2=CCCCC2)cc1	> 100
NS(=O)(=O)c1cc(C(=O)OCC(=O)Nc2ccccc2[N+](=O)[O-])ccc1Cl	> 100
CC(NC(=O)C12CC3CC(C)(CC(C)(C3)C1)C2)c1ccncc1 (configuration not stated)	> 100
COC(=O)c1ccc(OCC(=O)c2ccccc2OC)cc1	> 100
C=CCn1c(SCC(=O)Nc2ccc3c(c2)OCCO3)nnc1-c1ccco1	> 100
c1ccc(Cc2nc3ccccc3s2)cc1	> 100
CC1CCCC(NC(=O)COC(=O)[C@@H]2CC(O)CN2S(=O)(=O)c2ccc3c(c2)OCCO3)C1C (some centres not stated)	> 100
O=S1(=O)N[C@H](Cc2ccccc2)COc2cc(N3CCSCC3)ccc21	> 100
O=C1OC[C@@H]2CCCN2C(=O)[C@@H](CC(=O)N(CCO)Cc2ccccc2)C/C=C\C[C@H]1Cc1ccc(F)cc1	> 100
CC(C)(C)CC(=O)Nc1ccccc1N1CCN(c2ccccc2)CC1	> 100
Cc1cc(C)c(OCC(=O)OCC(=O)N2CCc3ccccc3C2)c(C)c1	> 100

Compound	AC50 [µM]
O=C(Nc1nc2ccccc2n1CCN1CCOCC1)c1ccccc1	> 100
COc1ccc(NC(=O)Nc2cccc3c2O[C@H](CN(C)S(=O)(=O)c2ccc(Cl)cc2)[C@@H](C)CN([C@@H](C)CO)C3=O)cc1	> 100
COC(=O)CNC(=O)COC(=O)c1ccc(Cl)nc1	> 100
Cn1cc(CN(CCO)Cc2cccs2)c(-c2cccc(Cl)c2)n1	> 100
CCOCCCNC(=O)C(NC(=O)c1ccccc1O)c1ccc(C)cc1 (configuration not stated)	> 100
CN(CCOc1ccccc1)S(=O)(=O)c1ccccc1C#N	> 100
Cc1ccc(C2NC(c3ccc(C)cc3)C(C)C(=O)C2C)cc1 (configuration not stated)	> 100
O=C1OCCC1Sc1nc2ccccc2c(=O)n1Cc1ccccc1 (configuration not stated)	> 100
COc1ccc(CNC(=O)c2nc(S(=O)(=O)Cc3ccccc3)ncc2Cl)cc1	> 100
COc1ccc(C(CC(=O)c2ccc(O)cc2)S(=O)(=O)c2ccc(C)cc2)cc1 (configuration not stated)	> 100
O=C1c2ccccc2CSc2c(O)cccc21	> 100
Cc1ccc(S(=O)(=O)N2CCCCC2C(=O)N2CCN(c3ccccc3F)CC2)cc1 (configuration not stated)	> 100
COc1ccc(OC)c(S(=O)(=O)Nc2cccc3ccc(O)cc23)c1	> 100
C[C@@H]1CN([C@@H](C)CO)C(=O)c2cc(NC(=O)C3CC3)ccc2O[C@H]1CN(C)C(=O)Nc1ccc(C(F)(F)F)cc1	> 100
CC1CCCC(NC(=O)COC(=O)Cc2c[nH]c3ccccc23)C1C (configuration not stated)	> 100
O=C(COC(=O)CCC(=O)c1ccc(F)cc1)Nc1cccc(S(=O)(=O)N2CCCC2)c1	> 100
Cc1n[nH]c(C)c1S(=O)(=O)N1CCCC(C(=O)Nc2ccc(Br)cc2)C1 (configuration not stated)	> 100
CCOC(=O)c1c(C)[nH]c(C)c1S(=O)(=O)NCCN1CCN(c2ccccc2F)CC1	> 100
COc1cccc(-c2ccc(NC(=O)C3CCCN(Cc4cnn(C(C)C)c4)C3)cc2)c1 (configuration not stated)	> 100
O=C(CSCc1c(Cl)cccc1Cl)NCc1ccccn1	> 100
O=C(C[n+]1ccn(-c2ccccc2)c1)c1ccc([N+](=O)[O-])cc1	> 100
Cc1ccc(S(=O)(=O)NCc2c(-c3ccccc3)noc2C)cc1	> 100
Cc1ccc(NC(=O)C2CCN(S(=O)(=O)c3ccc4c(c3)NC(=O)CO4)CC2)cc1	> 100
CC(=O)c1ccc(OCC(=O)Nc2ccc3c(c2)CCC3)cc1	> 100
COc1ccccc1C1CCN(C(=O)c2cccs2)CC1	> 100
O=C(NCc1ccc2c(c1)OCO2)c1sccc1Br	> 100
